Test results from ChEMBL document CHEMBL5325413, “Optimization of BAX trigger site activator BTSA1 with improved antitumor potency and in vitro ADMET properties” (Eur J Med Chem, 2023).
Activity calls are given as the source filed them. No cut-off for these calls is given here.

Legend:
[1] = Stability in rat plasma assessed as compound remaining measured after 120 mins; assay type: ADME, cell-free; conditions: read-out: Stability
[2] = Stability in rat plasma assessed as compound remaining measured after 30 mins; assay type: ADME, cell-free; conditions: read-out: Stability
[3] = Stability in rat plasma assessed as compound remaining measured immediately; assay type: ADME, cell-free; conditions: read-out: Stability
[4] = Stability in rat plasma assessed as half life; assay type: ADME, cell-free
[5] = Stability in rat plasma assessed as compound remaining measured after 10 mins; assay type: ADME, cell-free; conditions: read-out: Stability
[6] = Stability in rat plasma assessed as compound remaining measured after 60 mins; assay type: ADME, cell-free; conditions: read-out: Stability
[7] = mouse, 1 h, 100 µM
[8] = human, 1 h, 100 µM
[9] = human, microsomes, 1 h, 100 µM
THP-1 = experiment: Antiproliferative activity against human THP-1 cells expressing BAX assessed as cell growth inhibition incubated for 72 hrs by trypan blue cell counting analysis; assay type: functional
A549 [10] = experiment: Induction of apoptosis in human A549 cells assessed as late apoptotic cells at 40 uM incubated for 48 hrs by Annexin V-FITC/PI staining based flow cytometry analysis (reference value: 2.52%); assay type: functional
A549 [11] = experiment: Induction of apoptosis in human A549 cells assessed as late apoptotic cells at 10 uM incubated for 48 hrs by Annexin V-FITC/PI staining based flow cytometry analysis (reference value: 2.15%); assay type: functional
A549 [12] = experiment: Induction of apoptosis in human A549 cells assessed as dead cells at 40 uM incubated for 48 hrs by Annexin V-FITC/PI staining based flow cytometry analysis (reference value: 0.535%); assay type: functional
NCI-H1581 = experiment: Antiproliferative activity against human NCI-H1581 cells expressing BAX assessed as cell growth inhibition incubated for 72 hrs by MTT assay; assay type: functional
A549 [13] = experiment: Inhibition of colony formation in human A549 cells at 20 uM incubated for 2 weeks by crystal violet staining based analysis; assay type: functional, cell-based
A549 [14] = experiment: Induction of apoptosis in human A549 cells assessed as early apoptotic cells at 10 uM incubated for 48 hrs by Annexin V-FITC/PI staining based flow cytometry analysis (reference value: 0.708%); assay type: functional
in vitro [15] = conditions: mouse
in vitro [16] = conditions: human
A549 [17] = experiment: Induction of apoptosis in human A549 cells assessed as nuclear fragmentation at 20 to 80 uM incubated for 48 hrs by Hoechst 33342 staining based fluorescence microscopic analysis; assay type: functional, cell-based; conditions: dose 20-80 µM
A549 [18] = experiment: Induction of cell cycle arrest in human A549 cells assessed as accumulation of cells at S phase at 10 uM incubated for 48 hrs by RNase/PI staining based flow cytometry analysis (reference value: 26.01%); assay type: functional
A549 [19] = experiment: Induction of apoptosis in human A549 cells assessed as total apoptotic cells at 10 uM incubated for 48 hrs by Annexin V-FITC/PI staining based flow cytometry analysis (reference value: 2.86%); assay type: functional
[20] = Metabolic stability in mouse liver microsomes assessed as parent compound remaining at 100 uM incubated for 60 mins in absence of NADPH by LC-MS/MS analysis
[21] = Metabolic stability in human liver microsomes assessed as parent compound remaining at 100 uM incubated for 60 mins in absence of NADPH by LC-MS/MS analysis
A549 [22] = experiment: Antiproliferative activity against human A549 cells assessed as cell growth inhibition incubated for 72 hrs by MTT assay; assay type: functional
[23] = Metabolic stability in human liver microsomes assessed as parent compound remaining at 100 uM incubated for 60 mins in presence of NADPH by LC-MS/MS analysis
MDA-MB-231 = experiment: Antiproliferative activity against human MDA-MB-231 cells expressing BAX assessed as cell growth inhibition incubated for 72 hrs by MTT assay; assay type: functional
PC-3 = experiment: Antiproliferative activity against human PC-3 cells assessed as cell growth inhibition incubated for 72 hrs by MTT assay; assay type: functional
HCT-116 = experiment: Antiproliferative activity against human HCT-116 cells assessed as cell growth inhibition incubated for 72 hrs by MTT assay; assay type: functional
[24] = mouse, microsomes, 1 h, 100 µM
A549 [25] = experiment: Antiproliferative activity against human A549 cells assessed as reduction in cell viability at 5 to 25 uM by MTT assay; assay type: functional, cell-based; conditions: dose 5-25 µM, time 24-72 hrs, TDE = time-dependent effect
K562 = experiment: Antiproliferative activity against human K562 cells expressing BAX assessed as cell growth inhibition incubated for 72 hrs by trypan blue cell counting analysis; assay type: functional
A549 [26] = experiment: Induction of apoptosis in human A549 cells assessed as total apoptotic cells at 40 uM incubated for 48 hrs by Annexin V-FITC/PI staining based flow cytometry analysis (reference value: 4.26%); assay type: functional
A549 [27] = experiment: Induction of apoptosis in human A549 cells assessed as live cells at 10 uM incubated for 48 hrs by Annexin V-FITC/PI staining based flow cytometry analysis (reference value: 96.4%); assay type: functional
A549 [28] = experiment: Induction of apoptosis in human A549 cells assessed as live cells at 20 uM incubated for 48 hrs by Annexin V-FITC/PI staining based flow cytometry analysis (reference value: 95.9 %); assay type: functional
A549 [29] = experiment: Induction of apoptosis in human A549 cells assessed as total apoptotic cells at 20 uM incubated for 48 hrs by Annexin V-FITC/PI staining based flow cytometry analysis (reference value: 4.26%); assay type: functional
[30] = Metabolic stability in mouse liver microsomes assessed as parent compound remaining at 100 uM incubated for 60 mins in presence of NADPH by LC-MS/MS analysis
A549 [31] = experiment: Induction of apoptosis in human A549 cells assessed as formation of apoptotic bodies at 20 to 80 uM incubated for 48 hrs by Hoechst 33342 staining based fluorescence microscopic analysis; assay type: functional, cell-based; conditions: dose 20-80 µM
A549 [32] = experiment: Induction of apoptosis in human A549 cells assessed as live cells at 40 uM incubated for 48 hrs by Annexin V-FITC/PI staining based flow cytometry analysis (reference value: 95.9 %); assay type: functional
A549 [33] = experiment: Induction of apoptosis in human A549 cells assessed as late apoptotic cells at 20 uM incubated for 48 hrs by Annexin V-FITC/PI staining based flow cytometry analysis (reference value: 2.52%); assay type: functional
A549 [34] = experiment: Induction of apoptosis in human A549 cells assessed as dead cells at 10 uM incubated for 48 hrs by Annexin V-FITC/PI staining based flow cytometry analysis (reference value: 0.739%); assay type: functional
A549 [35] = experiment: Induction of apoptosis in human A549 cells assessed as early apoptotic cells at 20 uM incubated for 48 hrs by Annexin V-FITC/PI staining based flow cytometry analysis (reference value: 1.09 %); assay type: functional
A549 [36] = experiment: Induction of apoptosis in human A549 cells assessed as dead cells at 20 uM incubated for 48 hrs by Annexin V-FITC/PI staining based flow cytometry analysis (reference value: 0.535%); assay type: functional
A549 [37] = experiment: Induction of cell cycle arrest in human A549 cells assessed as accumulation of cells at G2/M phase at 10 uM incubated for 48 hrs by RNase/PI staining based flow cytometry analysis (reference value: 18.97%); assay type: functional
A549 [38] = experiment: Induction of cell cycle arrest in human A549 cells assessed as accumulation of cells at G0/G1 phase at 10 uM incubated for 48 hrs by RNase/PI staining based flow cytometry analysis (reference value: 54.82%); assay type: functional
MV4-11 = experiment: Antiproliferative activity against human MV4-11 cells expressing BAX assessed as cell growth inhibition incubated for 72 hrs by trypan blue cell counting analysis; assay type: functional
A549 [39] = experiment: Induction of apoptosis in human A549 cells assessed as cell rounding at 20 to 80 uM incubated for 48 hrs by Hoechst 33342 staining based fluorescence microscopic analysis; assay type: functional; conditions: dose 20-80 µM

Structure (SMILES): CCOC(=O)[C@H](CCc1ccccc1)N[C@@H](C)C(=O)N1CCC[C@H]1C(=O)O.O=C(O)/C=C\C(=O)O [ENALAPRIL MALEATE]
- remaining at 2 h [1]: 0%
- remaining at 0.5 h [2]: 19.2%
- remaining at 0 min [3]: 100%
- half-life [4]: 10 min
- remaining at 10 min [5]: 58.9%
- remaining at 1 h [6]: 2.7%

Structure (SMILES): C[C@]12CC[C@H]3[C@@H](CCC4=CC(=O)CC[C@@]43C)[C@@H]1CC[C@@H]2O [TESTOSTERONE]
- CLH [7]: 1.4374 mL/min/kg
- CLH [8]: 95.5 mL/min/kg
- CLint [9]: 106 µL/min/mg

Structure (SMILES): O=C1/C(=N\Nc2nccs2)C(c2ccccc2)=NN1c1nc(-c2ccccc2)cs1
- GI50 (THP-1): > 10 µM
- CLH [7]: 0.0626 mL/min/kg
- remaining at 2 h [1]: 98.6%
- Activity (A549 [10]): 10.2%
- Activity (A549 [11]): 2.97%
- Activity (A549 [12]): 2.82%
- GI50 (NCI-H1581): 6.22 µM
- inhibition (A549 [13]): Active
- Activity (A549 [14]): 0.844%
- half-life at 1 h, 100 µM (in vitro [15]; liver microsomes): 87.6 min
- half-life at 1 h, 100 µM (in vitro [16]; liver microsomes): 65 min
- Activity (A549 [17]): Active
- Activity (A549 [18]): 24.77%
- Activity (A549 [19]): 3.81%
- remaining at 1 h, 100 µM [20]: 84.8%
- remaining at 1 h, 100 µM [21]: 94.2%
- GI50 (A549 [22]): 14.5 µM
- remaining at 1 h, 100 µM [23]: 55.6%
- GI50 (MDA-MB-231): > 20 µM
- GI50 (PC-3): 14.3 µM
- GI50 (HCT-116): 12.5 µM
- CLint [24]: 15.8 µL/min/mg
- Activity (A549 [25]): Tde
- GI50 (K562): > 4 µM
- CLint [9]: 21.3 µL/min/mg
- Activity (A549 [26]): 14.92%
- remaining at 0.5 h [2]: 98.2%
- Activity (A549 [27]): 95.5%
- Activity (A549 [28]): 93.6%
- Activity (A549 [29]): 5.91%
- remaining at 1 h, 100 µM [30]: 59.4%
- Activity (A549 [31]): Active
- remaining at 0 min [3]: 100%
- Activity (A549 [32]): 82.2%
- Activity (A549 [33]): 2.7%
- Activity (A549 [34]): 0.651%
- half-life [4]: > 289 min
- remaining at 10 min [5]: 101%
- remaining at 1 h [6]: 100%
- Activity (A549 [35]): 3.21%
- Activity (A549 [36]): 0.486%
- Activity (A549 [37]): 10.12%
- Activity (A549 [38]): 57.42%
- GI50 (MV4-11): 6.29 µM
- Activity (A549 [39]): Active

Structure (SMILES): O=C(O)Cc1ccccc1Nc1c(Cl)cccc1Cl [DICLOFENAC]
- CLH ([7]; Liver): 0.1176 mL/min/kg
- half-life at 1 h, 100 µM (in vitro [15]; microsomes): 46.7 min
- half-life at 1 h, 100 µM (in vitro [16]; microsomes): 6.8 min
- CLH ([8]; Liver): 183 mL/min/kg
- CLint [24]: 29.7 µL/min/mg
- CLint [9]: 203 µL/min/mg
